Columns and labels:
4T1 tumors = experiment: Shear wave elastography of tumor stiffness (Example 5); format: in vivo, mice; conditions: bosentan 1 mg/kg
Text: Ultrasound elastography. Shear wave elestography was employed on a premier Philips EPIQ Elite Ultrasound system using a handheld linear array (eL 18-4) transducer. The method generates shear wave velocity via an acoustic push pulse, creating a color mapped elastogram where red indicates hard tissue and blue indicates soft tissue. A confidence display was also used as a reference of the highest shear wave quality of the user-defined region of interest (ROI). The average value of the tumor region was automatically generated by the system under default scanner settings and expressed in kPa. The settings that were used were: frequency, 10 MHz; power, 52%; B-mode gain, 22 dB; dynamic range, 62 dB. Shear wave imaging was performed prior to immunotherapy cocktail treatment on day 19 and as well on days 23 and 26.

[1] = tested on: orthotopic E0771 breast tumors; experiment: Pimonidazole hypoxia staining; format: in vivo, mice; conditions: 1 mg/kg; E0771 (FIG. 2A)
Procedure: Because reducing collagen I levels and tissue stiffness decompresses vessels, it was hypothesized that hypoxia, which is an indicator of decreased blood flow to the tumor, would be reduced with bosentan treatment. […] For the hypoxia studies, Mice bearing orthotopic E0771 or 4T1 breast tumors were injected (intraperitoneal) with 60 mg/kg of pimonidazole HCl at 2 hr prior to tumor removal. Prior to tumors excision, animals were anesthetized via Avertin (200 mg/kg, intraperitoneal). Primary tumors were then excised, fixed in 4% PFA, embedded in OCT and processed accordingly for IHC. Hypoxic regions were detected using the mouse anti-pimonidazole RED 549 conjugate antibody (HP7-100Kit, 1:100). Hypoxic area fraction across different treatment groups was normalized to DAPI staining. For fluorescent immunohistochemistry, tumors were removed, washed twice in 1× PBS for 10 min and incubated with 4% PFA overnight at 4° C. The fixative was aspirated, and samples washed twice in 1× PBS for 10 min. Fixed tissues were embedded in optimal cutting temperature compound in cryomolds (Tissue-Tek) and frozen completely at −20° C. […] CD31 signal was detected with Alexa Fluor-488 anti-rabbit IgG (H+L) and CD3 signal with Alexa Fluor-647 anti-rat IgG (H+L) secondary antibodies. Tumor associated T cell and vessel content was determined by the CD31 and CD3 area fraction normalized to DAPI staining. […]

E0771 cancer cells = experiment: Rechallenge of surviving mice with a second tumor cell inoculation; format: in vivo
Procedure: To determine if a stiffness-reducing and hypoxia-reducing (blood flow-increasing) regimen of bosentan could enhance the efficacy of an ICB cocktail of anti-PD-1 (mouse monoclonal anti-PD-1 CD279, clone RMP1-14, BioXCell) and anti-CTLA-4 (mouse monoclonal anti-CTLA-4 CD152, clone 9D9, BioXCell) antibodies, mice bearing primary tumors in a neo-adjuvant setting were administered various treatments. Therapy was administered before removing the primary tumors surgically to assess mice survival against spontaneous metastases that arose on treatment. For the combinatorial treatment with bosentan and Immunotherapy studies, bosentan 1 mg/kg or equal volume of diluent (control group) was administered by intraperitoneal injection (i.p.) once a day for 14 days, starting from once the tumor volumes reached an average size of 5 mm diameter. Immunotherapy was administrated as a cocktail of 10 mg/kg anti-PD-1 (CD279, clone RMP1-14, BioXCell) and 5 mg/kg anti-CTLA-4 (CD152, clone 9D9) following dilution in the recommended InVivoPure pH 7.0 Dilution Buffer (BioXCell). […] Planar dimensions (x, y) of tumor were monitored every 2-3 days using a digital caliper and tumor volume was estimated from the volume of an ellipsoid and assuming that the third dimension, z, is equal to x y. […]

E0771 tumors = experiment: Atomic force microscopy (AFM) Young's modulus and stiffness fingerprint of excised tumors; format: in vivo, mice

SMILES: COc1ccccc1Oc1c(NS(=O)(=O)c2ccc(C(C)(C)C)cc2)nc(-c2ncccn2)nc1OCCO [bosentan, 4-tert-butyl-N-[6-(2-hydroxy-ethoxy)-5-(2-methoxy-phenoxy)-2-(pyrimidin-2-yl)pyrimidin-4-yl] benzenesulfonamide]
- reduction of tumor stiffness (4T1 tumors): more than half
- tumor stiffness (elastic modulus) after bosentan treatment (4T1 tumors): ~20 kPa
- hypoxia (pimonidazole staining) [1]: reduced hypoxia
- mice with tumors appearing after rechallenge (E0771 cancer cells; five surviving mice (bosentan plus ICB) rechallenged): two out of the five
- tumor growth rate after rechallenge (E0771 cancer cells; five surviving mice (bosentan plus ICB) versus healthy age-matched control mice): grew much slower
- tissue stiffness, Young's modulus by atomic force microscopy (E0771 tumors; 1 mg/kg daily bosentan, excised E0771 tumors): confirmed
- mechanical fingerprint of the tissue (AFM stiffness histogram) (E0771 tumors; tumors treated with 1 mg/kg): large contribution from cancer cells and little contribution from collagen
- mechanical fingerprint of the tissue (AFM stiffness histogram) (E0771 tumors; tumors treated with 10 mg/kg): heterogenous collagen contribution
